Test system: MDA-MB-231 multicell spheroids, viability
Assay: Anticancer human tumor MDA-MB-231 cell line growth inhibition [PI3K];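 also: spheroids exposed to agents for seven days before reading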;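 as to viability, T/C: percent of vehicle control luminescence with DMSO treated spheroids as 100%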
Settings: for IC50: curve of first compound; for viability, T/C: stronger effect = lower value
In short: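 Tumor cells were combined with HUVEC and MSCs into spheroids, then dosed with PI3K-inhibitor combinations over half-log ranges capped near clinical Cmax or 10 microM.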

[1] = second compound 0.0316 µM, first compound 0.0316 µM
[2] = second compound 0.0316 µM, first compound 0.1 µM
[3] = second compound 0.0316 µM, first compound 0.316 µM
[4] = second compound 0.0316 µM, first compound 1 µM
[5] = second compound 0.0316 µM, first compound 3.16 µM
[6] = second compound 0.0316 µM, first compound 10 µM
[7] = second compound 0.1 µM, first compound 0.0316 µM
[8] = second compound 0.1 µM, first compound 0.1 µM
[9] = second compound 0.1 µM, first compound 0.316 µM
[10] = second compound 0.1 µM, first compound 1 µM
[11] = second compound 0.1 µM, first compound 3.16 µM
[12] = second compound 0.1 µM, first compound 10 µM
[13] = second compound 0.316 µM, first compound 0.0316 µM
[14] = second compound 0.316 µM, first compound 0.1 µM
[15] = second compound 0.316 µM, first compound 0.316 µM
[16] = second compound 0.316 µM, first compound 1 µM
[17] = second compound 0.316 µM, first compound 3.16 µM
[18] = second compound 0.316 µM, first compound 10 µM
[19] = second compound 1 µM, first compound 0.0316 µM
[20] = second compound 1 µM, first compound 0.1 µM
[21] = second compound 1 µM, first compound 0.316 µM
[22] = second compound 1 µM, first compound 1 µM
[23] = second compound 1 µM, first compound 3.16 µM
[24] = second compound 1 µM, first compound 10 µM
[25] = second compound 3.16 µM, first compound 0.0316 µM
[26] = second compound 3.16 µM, first compound 0.1 µM
[27] = second compound 3.16 µM, first compound 0.316 µM
[28] = second compound 3.16 µM, first compound 1 µM
[29] = second compound 3.16 µM, first compound 3.16 µM
[30] = second compound 3.16 µM, first compound 10 µM
[31] = second compound 10 µM, first compound 0.0316 µM
[32] = second compound 10 µM, first compound 0.1 µM
[33] = second compound 10 µM, first compound 0.316 µM
[34] = second compound 10 µM, first compound 1 µM
[35] = second compound 10 µM, first compound 3.16 µM
[36] = second compound 10 µM, first compound 10 µM

## C=CC(=O)N1CCN(c2nc(=O)n(-c3c(C)ccnc3C(C)C)c3nc(-c4c(O)cccc4F)c(F)cc23)C(C)C1 (stereo not drawn) + CC(Nc1ncnc2nc[nH]c12)c1cc2cccc(Cl)c2c(=O)n1-c1ccccc1
Second compound 0.0316 µM
  IC50: > 10000 nM
Second compound 0.1 µM
  IC50: > 10000 nM
Second compound 0.316 µM
  IC50: > 10000 nM
Second compound 1 µM
  IC50: > 10000 nM
Second compound 3.16 µM
  IC50: > 10000 nM
Second compound 10 µM
  IC50: > 10000 nM
[1]
  viability, T/C: 104%
[2]
  viability, T/C: 110%
[3]
  viability, T/C: 115%
[4]
  viability, T/C: 134%
[5]
  viability, T/C: 131%
[6]
  viability, T/C: 118%
[7]
  viability, T/C: 111%
[8]
  viability, T/C: 103%
[9]
  viability, T/C: 113%
[10]
  viability, T/C: 132%
[11]
  viability, T/C: 131%
[12]
  viability, T/C: 118%
[13]
  viability, T/C: 101%
[14]
  viability, T/C: 98.7%
[15]
  viability, T/C: 111%
[16]
  viability, T/C: 115%
[17]
  viability, T/C: 133%
[18]
  viability, T/C: 114%
[19]
  viability, T/C: 86.9%
[20]
  viability, T/C: 90.1%
[21]
  viability, T/C: 95.7%
[22]
  viability, T/C: 106%
[23]
  viability, T/C: 108%
[24]
  viability, T/C: 96%
[25]
  viability, T/C: 66.5%
[26]
  viability, T/C: 70.9%
[27]
  viability, T/C: 73.5%
[28]
  viability, T/C: 79.5%
[29]
  viability, T/C: 88.2%
[30]
  viability, T/C: 78.4%
[31]
  viability, T/C: 51%
[32]
  viability, T/C: 52.5%
[33]
  viability, T/C: 55.5%
[34]
  viability, T/C: 59%
[35]
  viability, T/C: 58.5%
[36]
  viability, T/C: 54.6%

## CC(Cn1ccc(-c2ccc(C#N)c(Cl)c2)n1)NC(=O)c1cc(C(C)O)[nH]n1 (stereo not drawn) + CC(Nc1ncnc2nc[nH]c12)c1cc2cccc(Cl)c2c(=O)n1-c1ccccc1
Second compound 0.0316 µM
  IC50: > 10000 nM
Second compound 0.1 µM
  IC50: > 10000 nM
Second compound 0.316 µM
  IC50: > 10000 nM
Second compound 1 µM
  IC50: > 10000 nM
Second compound 3.16 µM
  IC50: > 10000 nM
Second compound 10 µM
  IC50: < 31.6 nM
[1]
  viability, T/C: 100%
[2]
  viability, T/C: 95.7%
[3]
  viability, T/C: 99.6%
[4]
  viability, T/C: 98.5%
[5]
  viability, T/C: 96%
[6]
  viability, T/C: 82.3%
[7]
  viability, T/C: 92.9%
[8]
  viability, T/C: 98.3%
[9]
  viability, T/C: 97.9%
[10]
  viability, T/C: 95.2%
[11]
  viability, T/C: 92.4%
[12]
  viability, T/C: 78.4%
[13]
  viability, T/C: 81.9%
[14]
  viability, T/C: 93%
[15]
  viability, T/C: 95%
[16]
  viability, T/C: 88.5%
[17]
  viability, T/C: 87.9%
[18]
  viability, T/C: 75.7%
[19]
  viability, T/C: 70.6%
[20]
  viability, T/C: 79.4%
[21]
  viability, T/C: 78.4%
[22]
  viability, T/C: 79.5%
[23]
  viability, T/C: 72.2%
[24]
  viability, T/C: 64.5%
[25]
  viability, T/C: 61.3%
[26]
  viability, T/C: 61%
[27]
  viability, T/C: 61.4%
[28]
  viability, T/C: 56.2%
[29]
  viability, T/C: 56.9%
[30]
  viability, T/C: 49.2%
[31]
  viability, T/C: 47%
[32]
  viability, T/C: 44.3%
[33]
  viability, T/C: 47.8%
[34]
  viability, T/C: 45.5%
[35]
  viability, T/C: 42%
[36]
  viability, T/C: 36%

## Cn1ncc(Cl)c1-c1cc(C(=O)NC(CN)Cc2cccc(F)c2)sc1Cl (stereo not drawn) + CC(Nc1ncnc2nc[nH]c12)c1cc2cccc(Cl)c2c(=O)n1-c1ccccc1
Second compound 0.0316 µM
  IC50: 3880 nM
Second compound 0.1 µM
  IC50: 3590 nM
Second compound 0.316 µM
  IC50: 2610 nM
Second compound 1 µM
  IC50: 2190 nM
Second compound 3.16 µM
  IC50: 1050 nM
Second compound 10 µM
  IC50: < 31.6 nM
[1]
  viability, T/C: 100%
[2]
  viability, T/C: 96.4%
[3]
  viability, T/C: 84.6%
[4]
  viability, T/C: 74.9%
[5]
  viability, T/C: 55%
[6]
  viability, T/C: 27.8%
[7]
  viability, T/C: 103%
[8]
  viability, T/C: 97.7%
[9]
  viability, T/C: 95.4%
[10]
  viability, T/C: 75.4%
[11]
  viability, T/C: 53.3%
[12]
  viability, T/C: 29.2%
[13]
  viability, T/C: 93.1%
[14]
  viability, T/C: 97.6%
[15]
  viability, T/C: 84.9%
[16]
  viability, T/C: 65.2%
[17]
  viability, T/C: 48.9%
[18]
  viability, T/C: 27.5%
[19]
  viability, T/C: 77.5%
[20]
  viability, T/C: 80.5%
[21]
  viability, T/C: 69.5%
[22]
  viability, T/C: 64%
[23]
  viability, T/C: 43.6%
[24]
  viability, T/C: 23.4%
[25]
  viability, T/C: 63.6%
[26]
  viability, T/C: 62.2%
[27]
  viability, T/C: 57%
[28]
  viability, T/C: 51.9%
[29]
  viability, T/C: 36.3%
[30]
  viability, T/C: 22%
[31]
  viability, T/C: 45.3%
[32]
  viability, T/C: 45%
[33]
  viability, T/C: 47.5%
[34]
  viability, T/C: 43.2%
[35]
  viability, T/C: 29.1%
[36]
  viability, T/C: 20.9%

## Cn1nccc1Nc1nccc(-c2ccn(C(CO)c3ccc(Cl)c(F)c3)c(=O)c2)n1 (stereo not drawn) + CC(Nc1ncnc2nc[nH]c12)c1cc2cccc(Cl)c2c(=O)n1-c1ccccc1
Second compound 0.0316 µM
  IC50: 706 nM
Second compound 0.1 µM
  IC50: 512 nM
Second compound 0.316 µM
  IC50: 300 nM
Second compound 1 µM
  IC50: 117 nM
Second compound 3.16 µM
  IC50: < 31.6 nM
Second compound 10 µM
  IC50: < 31.6 nM
[1]
  viability, T/C: 80.1%
[2]
  viability, T/C: 68.8%
[3]
  viability, T/C: 56.8%
[4]
  viability, T/C: 46.4%
[5]
  viability, T/C: 38.6%
[6]
  viability, T/C: 27.9%
[7]
  viability, T/C: 75.3%
[8]
  viability, T/C: 70.2%
[9]
  viability, T/C: 50.6%
[10]
  viability, T/C: 44.3%
[11]
  viability, T/C: 36.4%
[12]
  viability, T/C: 27.1%
[13]
  viability, T/C: 79.3%
[14]
  viability, T/C: 62.3%
[15]
  viability, T/C: 48%
[16]
  viability, T/C: 40.1%
[17]
  viability, T/C: 35.5%
[18]
  viability, T/C: 26.8%
[19]
  viability, T/C: 64.8%
[20]
  viability, T/C: 50.1%
[21]
  viability, T/C: 39.4%
[22]
  viability, T/C: 36.4%
[23]
  viability, T/C: 33%
[24]
  viability, T/C: 22.1%
[25]
  viability, T/C: 45.9%
[26]
  viability, T/C: 38.8%
[27]
  viability, T/C: 28.5%
[28]
  viability, T/C: 24.8%
[29]
  viability, T/C: 25.2%
[30]
  viability, T/C: 21.2%
[31]
  viability, T/C: 36.5%
[32]
  viability, T/C: 27.3%
[33]
  viability, T/C: 25.7%
[34]
  viability, T/C: 20.8%
[35]
  viability, T/C: 22.9%
[36]
  viability, T/C: 16.8%

Source: PubChem BioAssay AID1963958 (Molecular Pharmacology Branch, DTP, NCI, 2024)
